Literature values as cited in patent US20090098173A1, “TOPICAL PAIN RELIEF PRODUCT” (priority 2007, published 2009).

Details: as described in U.S. Pat. No. 7,189,760 / 7,030,273

## CCOC(=O)CNC(=O)C1CC(C)CCC1C(C)C (stereo not shown) [ethyl ester of N-[[5-methyl-2-(1-methylethyl)cyclohexyl]carbonyl]glycine]
  physiological cooling activity: substantially high physiological cooling activity
